Data published in patent publication US20230167118A1, “DEGRADATION OF BRUTON'S TYROSINE KINASE (BTK) BY CONJUGATION OF BTK INIDBITORS WITH E3 LIGASE LIGAND AND METHODS OF USE” (BEIGENE, LTD., priority 2020, published 2023).

Assays:
HEK-293 cells = test: HEK-293 Cytotoxicity Assay (CellTiter-Glo); assay type: cell-based; conditions: Homo sapiens, HEK293, 72 h incubation, CellTiter-Glo luminescence
Outline: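 HEK-293 cells treated 72 h with 8 concentrations (4-fold dilutions, 0.2% DMSO final). Viability read by CellTiter-Glo luminescence; IC50 from four-parameter logistic fit of % inhibition.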

BTK = biological target: T1, BTK (Homo sapiens, UniProt Q06187); test: Cell Degradation: BTK degradation in TMD-8 cells, HTRF assay; assay type: cell-based; conditions: 6 h treatment, IC50 (DC50) of BTK degradation
T1 construct: High control=Cell group with added DMSO and without compound, indicating microplate readings without BTK degradation; endogenous in cells; host or cells: TMD-8 cells
T1 sequence (Q06187 whole entry): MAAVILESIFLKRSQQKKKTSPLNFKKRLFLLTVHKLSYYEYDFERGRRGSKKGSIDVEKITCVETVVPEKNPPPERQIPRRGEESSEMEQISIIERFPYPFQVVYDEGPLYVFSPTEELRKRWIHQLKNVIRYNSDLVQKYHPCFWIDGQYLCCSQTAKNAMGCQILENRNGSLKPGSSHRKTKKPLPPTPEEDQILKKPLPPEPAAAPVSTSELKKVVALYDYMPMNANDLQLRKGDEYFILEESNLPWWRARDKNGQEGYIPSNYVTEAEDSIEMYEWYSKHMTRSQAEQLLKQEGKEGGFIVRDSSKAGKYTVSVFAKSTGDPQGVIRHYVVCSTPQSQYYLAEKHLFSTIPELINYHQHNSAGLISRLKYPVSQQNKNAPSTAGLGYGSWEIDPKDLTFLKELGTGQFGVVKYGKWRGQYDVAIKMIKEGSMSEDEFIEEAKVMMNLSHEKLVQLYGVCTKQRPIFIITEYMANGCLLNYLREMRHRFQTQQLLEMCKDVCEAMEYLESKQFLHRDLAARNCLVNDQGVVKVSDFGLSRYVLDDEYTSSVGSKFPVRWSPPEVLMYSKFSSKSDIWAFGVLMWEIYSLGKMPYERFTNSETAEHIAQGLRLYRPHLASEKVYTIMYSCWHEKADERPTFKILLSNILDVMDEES
Outline: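 TMD-8 cells treated 6 h with 8-dose 6-fold dilutions in 0.2% DMSO, then lysed and BTK quantified by HTRF (665/620 nm). Degradation % normalised to high/low controls; DC50 from four-parameter fit, Dmax as maximal degradation.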

SMILES | DC50 (BTK) [nM] | IC50 (HEK-293 cells) [nM]
Cc1cc(-c2ncnc3[nH]c(-c4ccc(C5CC6CCC(C5)N6CC5CCN(c6ccc(N7CCC(=O)NC7=O)cn6)CC5)cc4)cc23)ccc1[C@@H](C)NC(=O)c1nc(C(C)(C)C)no1 (stereo partly drawn) [Example 182, 3-(tert-butyl)-N-((1R)-1-(4-(6-(4-(8-((1-(5-(2,4-dioxotetrahydropyrimidin-1(2H)-yl)pyridin-2-yl)piperidin-4-yl)methyl)-8-azabicyclo[3.2.1]octan-3-yl)phenyl)-7H-pyrrolo[2,3-d]pyrimidin-4-yl)-2-methylphenyl)ethyl)-1,2,4-oxadiazole-5-carboxamide] | 1.34 | 2220
Cc1cc(-c2ncnc3[nH]c(-c4ccc(C5CC6CCC(C5)N6CC5CCN(c6ccc(N7CCC(=O)NC7=O)cc6)CC5)cc4)cc23)ccc1[C@@H](C)NC(=O)c1nc(C(C)(C)C)no1 (stereo partly drawn) [Example 183, 3-(tert-butyl)-N-((1R)-1-(4-(6-(4-(8-((1-(4-(2,4-dioxotetrahydropyrimidin-1(2H)-yl)phenyl)piperidin-4-yl)methyl)-8-azabicyclo[3.2.1]octan-3-yl)phenyl)-7H-pyrrolo[2,3-d]pyrimidin-4-yl)-2-methylphenyl)ethyl)-1,2,4-oxadiazole-5-carboxamide] | 1.4 | 1040
Cc1cc(-c2ncnc3[nH]c(-c4ccc(N5CCN(CC6CCN(c7ccc(N8CC(=O)NC8=O)cc7)CC6)CC5)cn4)cc23)ccc1[C@@H](C)NC(=O)c1nc(C(C)(C)C)no1 [Example 184, (R)-3-(tert-butyl)-N-(1-(4-(6-(5-(4-((1-(4-(2,4-dioxoimidazolidin-1-yl)phenyl)piperidin-4-yl)methyl)piperazin-1-yl)pyridin-2-yl)-7H-pyrrolo[2,3-d]pyrimidin-4-yl)-2-methylphenyl)ethyl)-1,2,4-oxadiazole-5-carboxamide] | 2.7 | > 10000
Cc1cc(-c2ncnc3[nH]c(-c4ccc(N5CCN(CC6CCN(c7ccc(-n8ccc(=O)[nH]c8=O)cc7)CC6)CC5)nc4)cc23)ccc1[C@@H](C)NC(=O)c1nc(C(C)(C)C)no1 [Example 187, (R)-3-(tert-butyl)-N-(1-(4-(6-(6-(4-((1-(4-(2,4-dioxo-3,4-dihydropyrimidin-1(2H)-yl)phenyl)piperidin-4-yl)methyl)piperazin-1-yl)pyridin-3-yl)-7H-pyrrolo[2,3-d]pyrimidin-4-yl)-2-methylphenyl)ethyl)-1,2,4-oxadiazole-5-carboxamide] | 2.65 | > 10000
Cc1cc(-c2ncnc3[nH]c(-c4ccc(N5CCN([C@H]6C[C@@H](c7ccc(N[C@H]8CCC(=O)NC8=O)cc7)C6)CC5)nc4)cc23)ccc1[C@@H](C)NC(=O)c1nc(C(C)(C)C)no1 [Example 188, 3-(tert-butyl)-N-((R)-1-(4-(6-(6-(4-((1R,3s)-3-(4-(((S)-2,6-dioxopiperidin-3-yl)amino)phenyl)cyclobutyl)piperazin-1-yl)pyridin-3-yl)-7H-pyrrolo[2,3-d]pyrimidin-4-yl)-2-methylphenyl)ethyl)-1,2,4-oxadiazole-5-carboxamide] | 3.03 | > 10000
Cc1cc(-c2ncnc3[nH]c(-c4ccc(N5CCN(CC6CCN(c7ccc(N8CCC(=O)NC8=O)cc7)CC6)C(=O)C5)cc4)cc23)ccc1[C@@H](C)NC(=O)c1nc(C(C)(C)C)no1 [Example 190, (R)-3-(tert-butyl)-N-(1-(4-(6-(4-(4-((1-(4-(2,4-dioxotetrahydropyrimidin-1(2H)-yl)phenyl)piperidin-4-yl)methyl)-3-oxopiperazin-1-yl)phenyl)-7H-pyrrolo[2,3-d]pyrimidin-4-yl)-2-methylphenyl)ethyl)-1,2,4-oxadiazole-5-carboxamide] | 0.28 | > 10000

The next lines start with results.

DC50 (BTK) [nM] | SMILES | IC50 (HEK-293 cells) [nM]
1.58 | Cc1cc(-c2ncnc3[nH]c(-c4ccc(N5CCN(Cc6ccc(C7CCC(=O)NC7=O)c(F)c6)CC5)cn4)cc23)ccc1[C@@H](C)NC(=O)c1nc(C(C)(C)C)no1 (stereo partly drawn) [Example 181, 3-(tert-butyl)-N-((1R)-1-(4-(6-(5-(4-(4-(2,6-dioxopiperidin-3-yl)-3-fluorobenzyl)piperazin-1-yl)pyridin-2-yl)-7H-pyrrolo[2,3-d]pyrimidin-4-yl)-2-methylphenyl)ethyl)-1,2,4-oxadiazole-5-carboxamide] | > 10000
0.5 | Cc1cc(-c2ncnc3[nH]c(-c4ccc(N5CCN(CC6CCN(c7ccc(N8CCC(=O)NC8=O)cc7)CC6)CC5)cn4)cc23)ccc1[C@@H](C)NC(=O)c1nnc(C(C)(C)C)o1 [Example 185, (R)-5-(tert-butyl)-N-(1-(4-(6-(5-(4-((1-(4-(2,4-dioxotetrahydropyrimidin-1(2H)-yl)phenyl)piperidin-4-yl)methyl)piperazin-1-yl)pyridin-2-yl)-7H-pyrrolo[2,3-d]pyrimidin-4-yl)-2-methylphenyl)ethyl)-1,3,4-oxadiazole-2-carboxamide] | > 10000
1.04 | Cc1cc(-c2ncnc3[nH]c(-c4ncc(N5CCN(CC6CCN(c7ccc(N8CCC(=O)NC8=O)cc7)CC6)CC5)s4)cc23)ccc1[C@@H](C)NC(=O)c1nc(C(C)(C)C)no1 [Example 186, (R)-3-(tert-butyl)-N-(1-(4-(6-(5-(4-((1-(4-(2,4-dioxotetrahydropyrimidin-1(2H)-yl)phenyl)piperidin-4-yl)methyl)piperazin-1-yl)thiazol-2-yl)-7H-pyrrolo[2,3-d]pyrimidin-4-yl)-2-methylphenyl)ethyl)-1,2,4-oxadiazole-5-carboxamide] | > 10000
> 2000 | Cc1cc(-c2ncnc3[nH]c(-c4ccc(N5CCN([C@H]6C[C@@H](c7ccc(N[C@@H]8CCC(=O)NC8=O)cc7)C6)CC5)nc4)cc23)ccc1[C@@H](C)NC(=O)c1nc(C(C)(C)C)no1 [Example 189, 3-(tert-butyl)-N-((R)-1-(4-(6-(6-(4-((1S,3s)-3-(4-(((R)-2,6-dioxopiperidin-3-yl)amino)phenyl)cyclobutyl)piperazin-1-yl)pyridin-3-yl)-7H-pyrrolo[2,3-d]pyrimidin-4-yl)-2-methylphenyl)ethyl)-1,2,4-oxadiazole-5-carboxamide] | > 10000
1.59 | Cc1cc(-c2ncnc3[nH]c(-c4ccc(N5CCN([C@H]6C[C@@H](c7ccc(O[C@H]8CCC(=O)NC8=O)cc7)C6)CC5)nc4)cc23)ccc1[C@@H](C)NC(=O)c1nc(C(C)(C)C)no1 [Example 191, 3-(tert-butyl)-N-((R)-1-(4-(6-(6-(4-((1R,3s)-3-(4-(((S)-2,6-dioxopiperidin-3-yl)oxy)phenyl)cyclobutyl)piperazin-1-yl)pyridin-3-yl)-7H-pyrrolo[2,3-d]pyrimidin-4-yl)-2-methylphenyl)ethyl)-1,2,4-oxadiazole-5-carboxamide] | > 10000
> 2000 | Cc1cc(-c2ncnc3[nH]c(-c4ccc(N5CCN([C@H]6C[C@@H](c7ccc(O[C@@H]8CCC(=O)NC8=O)cc7)C6)CC5)nc4)cc23)ccc1[C@@H](C)NC(=O)c1nc(C(C)(C)C)no1 [Example 192, 3-(tert-butyl)-N-((R)-1-(4-(6-(6-(4-((1S,3s)-3-(4-(((R)-2,6-dioxopiperidin-3-yl)oxy)phenyl)cyclobutyl)piperazin-1-yl)pyridin-3-yl)-7H-pyrrolo[2,3-d]pyrimidin-4-yl)-2-methylphenyl)ethyl)-1,2,4-oxadiazole-5-carboxamide] | > 10000
